Assay results as given in paper PMC4227753, “Mycobacterium smegmatis DinB2 misincorporates deoxyribonucleotides and ribonucleotides during templated synthesis and lesion bypass” (Nucleic Acids Research, 2014).

Biological target: T1, DinB2 (Mycolicibacterium smegmatis, UniProt A0QR77)
T1 construct: gene dinB
Assay: single-turnover primer extension, kobs vs [NTP], one-site fit
Type: biochemical
Conditions: 5 mM MgCl2, 10 mM Tris-HCl pH 7.5, 37 C, 1 uM DinB2, 50 nM 13-mer/18-mer primer-template

T1 sequence (A0QR77 entry or part of it): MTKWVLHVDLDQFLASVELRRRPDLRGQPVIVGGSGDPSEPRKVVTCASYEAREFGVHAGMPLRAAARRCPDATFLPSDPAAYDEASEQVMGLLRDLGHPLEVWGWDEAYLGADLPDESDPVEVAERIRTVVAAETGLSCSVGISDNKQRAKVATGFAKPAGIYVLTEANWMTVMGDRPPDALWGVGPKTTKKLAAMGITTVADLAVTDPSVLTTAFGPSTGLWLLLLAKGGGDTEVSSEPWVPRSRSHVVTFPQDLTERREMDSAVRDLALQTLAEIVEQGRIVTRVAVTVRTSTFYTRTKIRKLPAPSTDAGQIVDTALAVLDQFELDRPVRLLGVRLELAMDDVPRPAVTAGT

Nc1nc2c(ncn2[C@@H]2O[C@H](COP(=O)(O)OP(=O)(O)OP(=O)(O)O)[C@@H](O)[C@H]2O)c(=O)[nH]1 [GTP]
Kd (mispair: opposite template dT (oligo-dT5 tail)): 386 µM

O=c1ccn([C@@H]2O[C@H](COP(=O)(O)OP(=O)(O)OP(=O)(O)O)[C@@H](O)[C@H]2O)c(=O)[nH]1 [UTP]
Kd (mispair: opposite template dC (oligo-dC5 tail)): 412 µM
